Ends that are not written are not given here.

We go through two compounds from patent US20190224243A1 (MUSC Foundation for Research Development, priority 2018, published 2019).

For test [1], the system named is animal model for ILD. The note with it: cited from earlier work.
The subject of test [2] is bleomycin-treated mice. Description: bleomycin minipump mouse model, lung fibrosis (Ashcroft score, ASMA and HSP47 IHC). In kind it is in vivo, C57BL/6 mice. From the text: (§1) To create a mouse model for autologous MSC treatment, adipose-derived MSCs were isolated from C57/BL6 mice treated with bleomycin, expanded in vitro, then injected systemically via the retro-orbital sinus or subcutaneously into host C57/BL6 mice that had been treated with bleomycin.
The Pump Model (Lee R. et al., 2014, Am. J. Physio. Lung Cell. Mol. Physio. 306:L736-748) is used both to generate MSC donors and host mice receiving MSC therapy. Briefly; under isoflurane anesthesia, mini-osmotic pumps (ALZET 1007D; DURECT Corporation, Cupertino, Calif.) containing 100 μl of bleomycin (67 U/kg) or saline are implanted posterior to the scapulae of 8-10 week old C57BL/6 mice. Pumps deliver 0.5 μl/h for 7 days, then are removed by day 10 per the manufacturer's instructions.
Mice were treated with bleomycin or vehicle using osmotic minipumps (Lee et al., 2014, Am J Physiol Lung Cell Mol Physiol, 306:L736-L748). […] Tissue morphology was quantified by the Ashcroft Method (Ashcroft et al., 1988, J Clin Pathol, 41:467-70). […]
On day 24, under anesthesia the rib cage was opened, mice systemically perfused via the left ventricle with PBS, then further perfused with Z-Fix (Anatech). […] Lung tissue morphology was evaluated by the Ashcroft Method (Ashcroft T. et al., 1988, J. Clin. Pathol. 41:467-470). Skin tissue morphology was evaluated in terms of the thickness of the dermis and the subdermal adipose layer. […]

The subject of test [3] is bleomycin-treated mice. The experiment in a line: bleomycin minipump mouse model, skin fibrosis (dermal thickness, FABP4 IHC). In kind it is in vivo, C57BL/6 mice.
Excerpt: as §1
The Pump Model (Lee R. et al., 2014, Am. J. Physio. Lung Cell. Mol. Physio. 306:L736-748) is used both to generate MSC donors and host mice receiving MSC therapy. Briefly; under isoflurane anesthesia, mini-osmotic pumps (ALZET 1007D; DURECT Corporation, Cupertino, Calif.) containing 100 μl of bleomycin (67 U/kg) or saline are implanted posterior to the scapulae of 8-10 week old C57BL/6 mice. […]
On day 24, under anesthesia the rib cage was opened, mice systemically perfused via the left ventricle with PBS, then further perfused with Z-Fix (Anatech). […] Lung tissue morphology was evaluated by the Ashcroft Method (Ashcroft T. et al., 1988, J. Clin. Pathol. 41:467-470). Skin tissue morphology was evaluated in terms of the thickness of the dermis and the subdermal adipose layer. Tissue sections were also analyzed by IHC using routine methods (Lee R. et al., 2014, Am. J. Physio. Lung Cell. Mol. Physio. 306:L736-748; Lee R. et al., 2014, Frontiers in Pharma. 5:140; Lee R. et al., 2015, Fibrogen. Tissue Repair, 8:11) and appropriate antibodies.

Test [4] concerns mice. The following applies: mice receiving CSD treatment; cited from earlier work.
Test [5] relates to SSc AT MSCs. The experiment in a line: adipocyte induction of SSc AT MSCs ± CSD or scrambled peptide (IHC for ASMA and FABP4). In kind it is cell-based, human. The following applies: treatment during adipocyte induction. The method, then: MSCs from healthy and SSc donors were treated with adipocyte induction medium (AIM), from Lonza to induce adipogenesis.
(§2) Adipogenic differentiation was induced by incubating cells for 3 cycles of 3 days in Adipocyte Induction Medium (Lonza) plus 1 day in Maintenance Medium. Adipogenic differentiation was analyzed by IHC and/or Western blotting using appropriate antibodies and by staining with an Oil Red 0 kit (Biovision) according to the manufacturer's instructions.

In test [6] the test system is TGFβ-activated monocytes. Description: monocyte migration toward SDF-1. In kind it is cell-based, human. The method, then: Migration experiments were performed using TGFβ-activated monocytes and 100 ng/ml of the chemokine SDF-1 as chemoattractant (Tourkina et al., 2011, Fibrogenesis Tissue Repair, 4:15). Cells were treated with the indicated concentrations of the indicated peptides. Cells that had migrated were counted in six high power fields per filter. Migration is expressed in terms of “Inhibition of Migration”. Each experiment included Control monocytes and the same monocytes treated with TGFβ which enhanced their rate of migration approximately three-fold. […] Intermediate degrees of inhibition were quantified on a linear basis.
To study the structure-activity relationship of CSD to identify an optimal version to be developed for treating fibrotic diseases in human patients, subdomains of CSD were tested for their ability to inhibit the migration of human monocytes. Monocytes from healthy subjects were used which, when activated using TGFβ, migrate at an enhanced rate similar to monocytes from SSc patients (Tourkina et al., 2011, Fibrogenesis Tissue Repair, 4:15).

Test [7] has as its system Healthy AT MSCs differentiated into adipocytes. The experiment in a line: Healthy AT MSCs already differentiated into adipocytes, then treated ± TGFβ ± CSD, Western blotting. The test is classed as cell-based, human. How it is done:
To induce MSCs or adipocytes into a profibrotic phenotype, the cells were cultured in the presence of TGFβ.
as §2
MSC cultures were rinsed with PBS. Lysis Buffer (20 mM Tris-HCl (pH 7.5)/1% NP-40/100 mM NaCl/5 mM EDTA/2 mM KCl) supplemented with 1 mM phenylmethylsulfonyl fluoride, protease inhibitor mixture Set V (Calbiochem), and phosphatase inhibitors (10 mM sodium pyrophosphate, 5 mM NaF, 10 mM beta-glycerophosphate, and 10 mM sodium orthovanadate) was added to the plates, the cells scraped into the buffer, frozen, thawed, and the extract clarified by centrifugation (10 min, 12,000 rpm, RT). The protein content of the supernatants was determined, sample buffer added, and the samples were boiled. 5 to 40 μg of protein was loaded per lane depending on the avidity of the primary antibody to be used for detection.
For orientation: Immunoblotting shows a protein as a band on a membrane.

Test [8] relates to Healthy AT MSCs. The experiment in a line: ASMA staining (IHC) of Healthy AT MSCs treated with CSD, scrambled CSD and TGFβ. The test is classed as cell-based, human. From the text:
Human MSCs were derived from abdominal fat tissue. SSc ILD and SSc No ILD MSCs are a generous gift from Dr. Del Papa (Milan, Italy). Healthy human MSCs are from Dr. Del Papa and from Lonza. Human MSCs were maintained in the medium previously described (Capelli C. et al., 2017, Cell Transplant. 26:841-854). Early passage cells (passage 1 to 3) were used in all experiments except when late passage cells (passage 5) were specifically used in FIG. 1F.
To induce fibrogenic differentiation in healthy human and mouse MSCs, cells were incubated for 10 days in Maintenance Medium supplemented with TGFβ (10 ng/ml). To determine the effects of knocking down caveolin-1 expression, healthy MSCs were treated with siRNA targeting caveolin-1 according to the manufacturer's instructions (Dharmacon).

The mark [9] stands for this setting: TGFβ after adipocyte differentiation.

On to `Cc1ccc(=O)n(-c2ccccc2)c1` [pirfenidone, reference compound], for which, in test [1], the “dose working in inhibiting fibrosis” value was 300 mg/kg/day.

On to “DGIWKASFTTFTVTKYWFYR-NH2 [CSD, caveolin-1 scaffolding domain peptide, amino acids 82-101 of caveolin-1]”, for which, in test [2], the “ASMA levels in the bleomycin-treated lung” value was “greatly decreased”. Further, the “loss of the intradermal adipose layer (FABP4 staining)” value in test [3] was “reversed”. In addition, in test [4], the “share of treated mice with beneficial effect on lung morphology” value is reported as “greater than 50%”. In addition, in test [5], the “number of ASMA+ cells” value is reported as “decreased” and the “number of FABP4+ cells” value is on record as “increased”. For the same compound, in test [1], the “dose working in inhibiting fibrosis” value is reported as 1 mg/kg/day and the “effectiveness relative to pirfenidone in inhibiting fibrosis” value is 300 fold. For the same compound, in test [6] (50 pg/ml peptide), the TGFβ-induced migration result is reported as “decreased essentially to the uninduced level”. For the same compound, the “inhibition of TGFβ-induced migration” value in test [6] (levels as low as 0.005 pg/ml) is recorded as “Substantial inhibition”. Also, in test [7] (setting [9]), the AKT activation entry was “restored”, the FABP4 expression entry is recorded as “did not restore”, the “fibrogenic effect of TGFβ: increased ASMA expression” value was “reversed” and the “fibrogenic effect of TGFβ: increased Col I expression” value is on record as “reversed”. Besides, in test [7] (setting [9]), the p38 activation entry was “inhibited”. In test [7] (differentiated adipocytes), the PPARγ expression result was “Neither TGFβ nor CSD affected” and the caveolin-1 expression result is “Neither TGFβ nor CSD affected”. The “enhanced ASMA expression in cells treated with TGFβ” value in test [8] (healthy MSCs + TGFβ) is recorded as “inhibited”. In addition, the “baseline expression of ASMA” value in test [8] (healthy MSCs without TGFβ) is “inhibited”.
